Data as given in patent US20250281499A1, “FUSED AMINO PYRIMIDINE COMPOUNDS FOR TREATMENT OF NEUROPATHIC AND NEURO-INFLAMMATORY PAIN” (Ovid Therapeutics Inc., priority 2024, published 2025).
pEC50: −log10 of the molar value.

What was measured:
hippocampus = assay: Neuronal cell death in the hippocampus, Compound A with diazepam; assay type: in vivo; conditions: mice, Compound A and diazepam vs diazepam alone
NKCC1 = target: T1, NKCC1 (Homo sapiens, UniProt P55011); assay: Tl+ flux assay, HEK-293 cells expressing NKCC1; assay type: cell-based; conditions: read-out: concentration at which effects on NKCC1 were seen (EC50, FIG. 1G)
T1 construct: expressed in transfected cells; host or cells: HEK-293
T1 sequence (P55011 1-1212): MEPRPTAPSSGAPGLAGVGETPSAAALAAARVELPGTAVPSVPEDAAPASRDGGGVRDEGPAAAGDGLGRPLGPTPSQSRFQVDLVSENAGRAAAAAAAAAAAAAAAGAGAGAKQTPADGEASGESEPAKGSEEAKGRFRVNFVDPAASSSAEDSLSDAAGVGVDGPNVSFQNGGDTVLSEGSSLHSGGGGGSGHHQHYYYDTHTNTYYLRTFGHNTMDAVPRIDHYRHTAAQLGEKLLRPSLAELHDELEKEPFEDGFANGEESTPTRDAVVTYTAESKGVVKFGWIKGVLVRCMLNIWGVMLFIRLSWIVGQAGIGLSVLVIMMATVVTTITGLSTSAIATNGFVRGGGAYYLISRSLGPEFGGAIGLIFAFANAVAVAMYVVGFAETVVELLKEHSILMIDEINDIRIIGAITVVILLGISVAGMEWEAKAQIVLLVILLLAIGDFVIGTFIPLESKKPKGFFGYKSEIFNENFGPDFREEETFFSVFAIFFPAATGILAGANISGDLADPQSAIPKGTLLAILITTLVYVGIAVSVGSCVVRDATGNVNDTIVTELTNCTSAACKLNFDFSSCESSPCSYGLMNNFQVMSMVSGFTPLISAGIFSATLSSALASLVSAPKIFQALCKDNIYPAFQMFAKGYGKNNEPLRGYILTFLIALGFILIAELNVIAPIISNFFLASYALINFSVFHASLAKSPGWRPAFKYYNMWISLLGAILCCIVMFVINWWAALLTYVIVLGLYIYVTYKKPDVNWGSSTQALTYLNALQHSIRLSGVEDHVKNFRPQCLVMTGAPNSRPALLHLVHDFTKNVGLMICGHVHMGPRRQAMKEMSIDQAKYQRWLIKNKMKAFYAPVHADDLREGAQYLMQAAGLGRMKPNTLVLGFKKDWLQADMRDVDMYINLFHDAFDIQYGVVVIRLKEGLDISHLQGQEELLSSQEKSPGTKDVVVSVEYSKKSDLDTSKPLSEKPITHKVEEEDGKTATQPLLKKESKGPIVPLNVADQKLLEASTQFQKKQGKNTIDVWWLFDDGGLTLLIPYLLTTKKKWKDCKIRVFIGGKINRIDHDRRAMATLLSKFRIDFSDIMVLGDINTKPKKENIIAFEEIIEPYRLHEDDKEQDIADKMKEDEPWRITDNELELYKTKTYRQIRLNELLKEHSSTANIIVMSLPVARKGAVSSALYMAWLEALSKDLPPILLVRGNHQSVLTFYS
Protocol: FLIPR TI Flux assay. HEK-293 cells were washed with HBSS, and then incubated with loading buffer containing TI sensitive fluorescent dye (https://www.moleculardevices.com), 20 μM bumetanide 20 μM ouabain and 2.5 mM probenecid for 1 h at room temperature (RT) under control conditions or with drugs in the dark using a FlexStation 3 microplate reader (Molecular Devices) and imaged […] for 30 min. Stimulus buffer was added containing 5 mM K^+/0.5 mM Tl^+ and cells were imaged every 1.5 over a 190 second time course The initial rate Tl^+ uptake (Relative Fluorescence Units (RFU) per second) was determined following addition of the stimulus buffer as outlined previously (Conway et al., 2017, supra) (Lee et al., 2022, supra).
Several studies have shown that the activity and plasma membrane accumulation of KCC2 is potentiated via phosphorylation of S940, a process mediated by the activity of protein kinase C and protein phosphatase 1 (Lee et al, 2011, supra; Lee et al., J Biol Chem 282, 29777-29784 (2007); Moore et al., Proc. Natl. Acad. Sci. U.S.A 115, 10166-10171 (2018); Moore et al., Trends Neurosci. 40, 555-571 (2017); Silayeva et al., Proc. Natl. Acad. Sci. U.S.A. 112, 3523-3528 (2015)). […] Compared to KCC2, effects on KCC3, KCC4, and NKCC1 were only seen at concentrations more than 35-fold that of KCC2 (>100 μM) (FIG. 1G).

[1] = test system: 18-20 Div hippocampal neurons; assay: Gramicidin perforated patch-clamp, EGABA in hippocampal neurons; assay type: cell-based, Sprague Dawley; conditions: 300 nM
Protocol: (§1) Neuronal Cultures. Hippocampal neurons were prepared from Sprague Dawley E18 embryos and plated at 450,000 per dish and maintained at 37° C. in a humidified 5% CO2 incubator for 10-25 days before experimentation (Lee et al., Nat. Neurosci. 14, 736-743 (2011)).
At this developmental stage, GABAAR receptor activation leads to hyperpolarization, a phenomenon critically dependent upon KCC2 (Kontou et al., J Biol Chem, 100364 (2021)).
(§2) Neuronal Patch clamp assays. Neuronal cell culture recordings were performed in bath saline at 34° C. For gramicidin perforated-patch experiments, pipettes contained (in mM): 140 KCl and 10 HEPES, pH 7.4 KOH. For whole-cell experiments, pipettes contained (in mM): 115 K-meth-SO4, 30 KCl, 2 Mg-ATP, 4 Na-ATP, 0.4 Na-GTP, and 10 HEPES, pH 7.4 KOH. Bath saline contained the following (in mM): 140 NaCl, 2.5 KCl, 2.5 CaCl2, 2.5 MgCl2, 10 HEPES, and 11 glucose, pH 7.4 NaOH (Kontou et al., 2021, supra). All compound solutions were applied to cells using a three-barreled 700 μm pipe positioned just above the cell (Warner Instruments). […] All voltages from whole-cell experiments were corrected offline using a calculated liquid junction potential value (13.6 mV) in Clampex (Molecular Devices). For gramicidin perforated-patch experiments, intracellular Cl^− values were back-calculated using measured EGABA values and the Nernst equation: […]

hippocampal neurons = assay: Whole cell patch-clamp with imposed Cl− load in hippocampal neurons; assay type: cell-based, Sprague Dawley; conditions: 1 h incubation, 32 mM Cl− load; controls −47.4±2.3
Protocol: as §1, §2
5 min after break-in, an initial EGABA value was determined and the effects of a subsequent 5 min incubation with VU0463271 was assessed.

C[C@@H]1CN(c2nc3c(c(Nc4ccc(C5CCCCC5)cc4)n2)COC3)CCO1 [Compound A, (R)—N-(4-cyclohexylphenyl)-2-(2-methylmorpholino)-5,7-dihydrofuro[3,4-d]pyrimidin-4-amine]
neuronal cell death in the hippocampus (hippocampus): significantly reduced | pEC50 (NKCC1): < 4.00 | reduction in Cl− ([1]; 15 min, calculated from EGABA): 2.2 ± 0.6 mM | EGABA at 15 min ([1]; from −75±3.1 at 0 min, bumetanide and TTX present): −85.1±4.2 mV | basal EGABA (hippocampal neurons): −59.3±2.1 mV
